Reference: patent US20210298306A1, “PESTICIDALLY ACTIVE AZOLE-AMIDE COMPOUNDS” (SYNGENTA PARTICIPATIONS AG, priority 2018, published 2021)

How the values were obtained:
Type in all cases: in vivo
Thrips tabaci = assay: Example B9: Thrips tabaci (onion thrips), feeding/contact activity, sunflower leaf discs; settings: foliar, 144 h; application rate 200 ppm; 6 days after infestation; Thrips tabaci mixed ages
Method: Example B9: Thrips tabaci (Onion Thrips) Feeding/Contact Activity
Sunflower leaf discs were placed on agar in 24-well microtiter plates and sprayed with aqueous test solutions prepared from 10,000 ppm DMSO stock solutions. After drying the leaf discs were infested with a thrips population of mixed ages. The samples were assessed for mortality 6 days after infestation.

Diabrotica balteata = assay: Example B1: Diabrotica balteata (corn root worm), maize sprouts sprayed, L2 larvae; settings: 96 h, application rate 200 ppm, 4 days after infestation, read-out: effect in at least one of the two categories (mortality or growth inhibition)
Method: Example B1: Diabrotica Balteata (Corn Root Worm)
Maize sprouts placed onto an agar layer in 24-well microtiter plates were treated with aqueous test solutions prepared from 10,000 ppm DMSO stock solutions by spraying. After drying, the plates were infested with L2 larvae (6 to 10 per well). The samples were assessed for mortality and growth inhibition in comparison to untreated samples 4 days after infestation.
(§1) The following compounds gave an effect of at least 80% in at least one of the two categories (mortality or growth inhibition) at an application rate of 200 ppm: […]

Spodoptera littoralis [1] = assay: Example B7: Spodoptera littoralis (Egyptian cotton leaf worm), cotton leaf discs sprayed, L1 larvae; settings: foliar, 72 h, application rate 200 ppm, 3 days after infestation, read-out: control in at least one of the categories (mortality, anti-feedant effect, or growth inhibition)
Method: Example B7: Spodoptera littoralis (Egyptian Cotton Leaf Worm)
Cotton leaf discs were placed onto agar in 24-well microtiter plates and sprayed with aqueous test solutions prepared from 10,000 ppm DMSO stock solutions. After drying the leaf discs were infested with five L1 larvae. The samples were assessed for mortality, anti-feeding effect, and growth inhibition in comparison to untreated samples 3 days after infestation. Control of Spodoptera littoralis by a test sample is given when at least one of the categories mortality, anti-feedant effect, and growth inhibition is higher than the untreated sample.

Plutella xylostella = assay: Example B4: Plutella xylostella (diamond back moth), artificial diet, 24-well, eggs; settings: 192 h, application rate 200 ppm, 8 days after infestation, read-out: effect in at least one of the two categories (mortality or growth inhibition)
Method: Example B4: Plutella xylostella (Diamond Back Moth)
24-well microtiter plates with artificial diet were treated with aqueous test solutions prepared from 10,000 ppm DMSO stock solutions by pipetting. After drying, Plutella eggs were pipetted through a plastic stencil onto a gel blotting paper and the plate was closed with it. The samples were assessed for mortality and growth inhibition in comparison to untreated samples 8 days after infestation.
as §1

Myzus persicae [2] = assay: Example B6: Myzus persicae (green peach aphid), intrinsic activity, sucrose solution, 24-well; settings: 120 h, test rate 12 ppm, 5 days after infestation
Description: Example B6: Myzus persicae (Green Peach Aphid). Intrinsic Activity
Test compounds prepared from 10,000 ppm DMSO stock solutions were applied by pipette into 24-well microtiter plates and mixed with sucrose solution. The plates were closed with a stretched Parafilm. A plastic stencil with 24 holes was placed onto the plate and infested pea seedlings were placed directly on the Parafilm. The infested plate was closed with a gel blotting paper and another plastic stencil and then turned upside down. The samples were assessed for mortality 5 days after infestation.

Euschistus heros = assay: Example B2: Euschistus heros (neotropical brown stink bug), soybean leaves sprayed, N2 nymphs; settings: 120 h, application rate 200 ppm, 5 days after infestation, read-out: effect in at least one of the two categories (mortality or growth inhibition)
Method: Example B2: Euschistus heros (Neotropical Brown Stink Bug)
Soybean leaves on agar in 24-well microtiter plates were sprayed with aqueous test solutions prepared from 10,000 ppm DMSO stock solutions. After drying the leaves were infested with N2 nymphs. The samples were assessed for mortality and growth inhibition in comparison to untreated samples 5 days after infestation.
as §1

Spodoptera littoralis [3] = assay: Example B8: Spodoptera littoralis (Egyptian cotton leaf worm), uptake by lettuce roots from agar, eggs; settings: 144 h, test rate 12.5 ppm, 6 days after infestation, lettuce root uptake, read-out: effect in at least one of the three categories (mortality, anti-feeding, or growth inhibition)
Description: Example B8: Spodoptera littoralis (Egyptian Cotton Leaf Worm)
Test compounds were applied by pipette from 10,000 ppm DMSO stock solutions into 24-well plates and mixed with agar. Lettuce seeds were placed onto the agar and the multi well plate was closed by another plate which contained also agar. After 7 days the compound was absorbed by the roots and the lettuce grew into the lid plate. The lettuce leaves were then cut off into the lid plate. Spodoptera eggs were pipetted through a plastic stencil onto a humid gel blotting paper and the lid plate was closed with it. The samples were assessed for mortality, anti-feedant effect and growth inhibition in comparison to untreated samples 6 days after infestation.
The following compounds gave an effect of at least 80% in at least one of the three categories (mortality, anti-feeding, or growth inhibition) at a test rate of 12.5 ppm: […]

Myzus persicae [4] = assay: Example B5: Myzus persicae (green peach aphid), feeding/contact activity, sunflower leaf discs; settings: foliar, 144 h, application rate 200 ppm, 6 days after infestation, Myzus persicae mixed ages
Method: Example B5: Myzus persicae (Green Peach Aphid):Feeding/Contact Activity
Sunflower leaf discs were placed onto agar in a 24-well microtiter plate and sprayed with aqueous test solutions prepared from 10,000 ppm DMSO stock solutions. After drying, the leaf discs were infested with an aphid population of mixed ages. The samples were assessed for mortality 6 days after infestation.

CC(c1ncnn1-c1ncccn1)N(CC1CC1)C(=O)c1cc(C(F)F)cc(C(F)(F)F)c1 (centres unmarked) [P1, N-(cyclopropylmethyl)-3-(difluoromethyl)-N-[1-(2-pyrimidin-2-yl-1,2,4-triazol-3-yl)ethyl]-5-(trifluoromethyl) benzamide]
≥ 80%: mortality at 200 ppm (Thrips tabaci) | percent effect (mortality or growth inhibition) at 200 ppm (Diabrotica balteata) | percent control (mortality, anti-feedant effect or growth inhibition) at 200 ppm (Spodoptera littoralis [1]) | percent effect (mortality or growth inhibition) at 200 ppm (Plutella xylostella) | mortality at 12 ppm (Myzus persicae [2]) | percent effect (mortality or growth inhibition) at 200 ppm (Euschistus heros)

CC(c1ncnn1-c1ncccn1)N(CC1CC1)C(=O)c1cc(OC(F)(F)C(F)F)cc(C(F)(F)F)c1 (centres unmarked) [P3, N-(cyclopropylmethyl)-N-[1-(2-pyrimidin-2-yl-1,2,4-triazol-3-yl)ethyl]-3-(1,1,2,2-tetrafluoroethoxy)-5-(trifluoromethyl)benzamide]
≥ 80%: mortality at 200 ppm (Thrips tabaci) | percent effect (mortality or growth inhibition) at 200 ppm (Diabrotica balteata) | percent effect (mortality, anti-feeding or growth inhibition) at 12.5 ppm (Spodoptera littoralis [3]) | percent control (mortality, anti-feedant effect or growth inhibition) at 200 ppm (Spodoptera littoralis [1]) | percent effect (mortality or growth inhibition) at 200 ppm (Plutella xylostella) | mortality at 12 ppm (Myzus persicae [2]) | percent effect (mortality or growth inhibition) at 200 ppm (Euschistus heros)

CC(NC(=O)c1cc(SCC(F)(F)F)cc(C(F)(F)F)c1)c1ncnn1-c1ncccn1 (centres unmarked) [P6, N-[1-(2-pyrimidin-2-yl-1,2,4-triazol-3-yl)ethyl]-3-(2,2,2-trifluoroethylsulfanyl)-5-(trifluoromethyl) benzamide]
≥ 80%: percent effect (mortality or growth inhibition) at 200 ppm (Diabrotica balteata) | percent control (mortality, anti-feedant effect or growth inhibition) at 200 ppm (Spodoptera littoralis [1]) | percent effect (mortality or growth inhibition) at 200 ppm (Plutella xylostella)

CC(NC(=O)c1cc(OCC(F)(F)F)cc(C(F)(F)F)c1)c1ncnn1-c1ncccn1 (centres unmarked) [P7, N-[1-(2-pyrimidin-2-yl-1,2,4-triazol-3-yl)ethyl]-3-(2,2,2-trifluoroethoxy)-5-(trifluoromethyl) benzamide]
≥ 80%: percent effect (mortality or growth inhibition) at 200 ppm (Diabrotica balteata) | percent control (mortality, anti-feedant effect or growth inhibition) at 200 ppm (Spodoptera littoralis [1]) | percent effect (mortality or growth inhibition) at 200 ppm (Plutella xylostella) | mortality at 12 ppm (Myzus persicae [2]) | percent effect (mortality or growth inhibition) at 200 ppm (Euschistus heros) | mortality at 200 ppm (Myzus persicae [4])

CC(NC(=O)c1cc(OC(F)F)cc(C(F)(F)F)c1)c1ncnn1-c1ncccn1 (centres unmarked) [P8, 3-(difluoromethoxy)-N-[1-(2-pyrimidin-2-yl-1,2,4-triazol-3-yl)ethyl]-5-(trifluoromethyl) benzamide]
≥ 80%: mortality at 200 ppm (Thrips tabaci) | percent effect (mortality or growth inhibition) at 200 ppm (Diabrotica balteata) | percent effect (mortality, anti-feeding or growth inhibition) at 12.5 ppm (Spodoptera littoralis [3]) | percent control (mortality, anti-feedant effect or growth inhibition) at 200 ppm (Spodoptera littoralis [1]) | percent effect (mortality or growth inhibition) at 200 ppm (Plutella xylostella) | mortality at 12 ppm (Myzus persicae [2]) | percent effect (mortality or growth inhibition) at 200 ppm (Euschistus heros) | mortality at 200 ppm (Myzus persicae [4])

CC(NC(=O)c1cc(SCC(F)(F)F)cc(C(F)(F)F)c1)c1ncnn1-c1ccccn1 (centres unmarked) [P9, N-[1-[2-(2-pyridyl)-1,2,4-triazol-3-yl]ethyl]-3-(2,2,2-trifluoroethylsulfanyl)-5-(trifluoromethyl) benzamide]
≥ 80%: percent effect (mortality or growth inhibition) at 200 ppm (Diabrotica balteata) | percent effect (mortality or growth inhibition) at 200 ppm (Plutella xylostella)

CC(NC(=O)c1cc(OCC(F)(F)F)cc(C(F)(F)F)c1)c1ncnn1-c1ccccn1 (centres unmarked) [P10, N-[1-[2-(2-pyridyl)-1,2,4-triazol-3-yl]ethyl]-3-(2,2,2-trifluoroethoxy)-5-(trifluoromethyl) benzamide]
≥ 80%: percent effect (mortality or growth inhibition) at 200 ppm (Diabrotica balteata) | percent control (mortality, anti-feedant effect or growth inhibition) at 200 ppm (Spodoptera littoralis [1]) | percent effect (mortality or growth inhibition) at 200 ppm (Plutella xylostella) | percent effect (mortality or growth inhibition) at 200 ppm (Euschistus heros)

CC(NC(=O)c1cc(OC(F)F)cc(C(F)(F)F)c1)c1ncnn1-c1ccccn1 (centres unmarked) [P11, 3-(difluoromethoxy)-N-[1-[2-(2-pyridyl)-1,2,4-triazol-3-yl]ethyl]-5-(trifluoromethyl) benzamide]
≥ 80%: percent effect (mortality or growth inhibition) at 200 ppm (Diabrotica balteata) | percent effect (mortality, anti-feeding or growth inhibition) at 12.5 ppm (Spodoptera littoralis [3]) | percent control (mortality, anti-feedant effect or growth inhibition) at 200 ppm (Spodoptera littoralis [1]) | percent effect (mortality or growth inhibition) at 200 ppm (Plutella xylostella)

CC(NC(=O)c1cc(OC(F)F)cc(C(F)(F)F)c1)c1ncnn1-c1ncccc1F (centres unmarked) [P12, 3-(difluoromethoxy)-N-[1-[2-(3-fluoro-2-pyridyl)-1,2,4-triazol-3-yl]ethyl]-5-(trifluoromethyl) benzamide]
≥ 80%: percent effect (mortality or growth inhibition) at 200 ppm (Diabrotica balteata) | percent control (mortality, anti-feedant effect or growth inhibition) at 200 ppm (Spodoptera littoralis [1]) | percent effect (mortality or growth inhibition) at 200 ppm (Plutella xylostella) | percent effect (mortality or growth inhibition) at 200 ppm (Euschistus heros)

CC(NC(=O)c1cc(SCC(F)(F)F)cc(C(F)(F)F)c1)c1ncnn1-c1ncccc1F (centres unmarked) [P13, N-[1-[2-(3-fluoro-2-pyridyl)-1,2,4-triazol-3-yl]ethyl]-3-(2,2,2-trifluoroethylsulfanyl)-5-(trifluoromethyl) benzamide]
≥ 80%: percent effect (mortality or growth inhibition) at 200 ppm (Diabrotica balteata)

CC(NC(=O)c1cc(OC(F)F)cc(C(F)(F)F)c1)c1ncnn1-c1ccc(F)cn1 (centres unmarked) [P15, 3-(difluoromethoxy)-N-[1-[2-(5-fluoro-2-pyridyl)-1,2,4-triazol-3-yl]ethyl]-5-(trifluoromethyl) benzamide]
≥ 80%: percent effect (mortality or growth inhibition) at 200 ppm (Diabrotica balteata) | percent effect (mortality, anti-feeding or growth inhibition) at 12.5 ppm (Spodoptera littoralis [3]) | percent control (mortality, anti-feedant effect or growth inhibition) at 200 ppm (Spodoptera littoralis [1]) | percent effect (mortality or growth inhibition) at 200 ppm (Plutella xylostella) | mortality at 12 ppm (Myzus persicae [2]) | percent effect (mortality or growth inhibition) at 200 ppm (Euschistus heros)

CC(NC(=O)c1cc(SCC(F)(F)F)cc(C(F)(F)F)c1)c1ncnn1-c1ccc(F)cn1 (centres unmarked) [P16, N-[1-[2-(5-fluoro-2-pyridyl)-1,2,4-triazol-3-yl]ethyl]-3-(2,2,2-trifluoroethylsulfanyl)-(trifluoromethyl) benzamide]
≥ 80%: percent effect (mortality or growth inhibition) at 200 ppm (Diabrotica balteata) | percent control (mortality, anti-feedant effect or growth inhibition) at 200 ppm (Spodoptera littoralis [1]) | percent effect (mortality or growth inhibition) at 200 ppm (Plutella xylostella)

CC(NC(=O)c1cc(OCC(F)(F)F)cc(C(F)(F)F)c1)c1ncnn1-c1ccc(F)cn1 (centres unmarked) [P17, N-[1-[2-(5-fluoro-2-pyridyl)-1,2,4-triazol-3-yl]ethyl]-3-(2,2,2-trifluoroethoxy)-5-(trifluoromethyl) benzamide]
≥ 80%: percent effect (mortality or growth inhibition) at 200 ppm (Diabrotica balteata) | percent control (mortality, anti-feedant effect or growth inhibition) at 200 ppm (Spodoptera littoralis [1]) | percent effect (mortality or growth inhibition) at 200 ppm (Plutella xylostella) | percent effect (mortality or growth inhibition) at 200 ppm (Euschistus heros)

CC(NC(=O)c1cncc(OC(F)F)c1)c1ncnn1-c1ncccc1F (centres unmarked) [P22, 5-(difluoromethoxy)-N-[1-[2-(3-fluoro-2-pyridyl)-1,2,4-triazol-3-yl]ethyl]pyridine-3-carboxamide]
≥ 80%: percent effect (mortality or growth inhibition) at 200 ppm (Plutella xylostella)

CC(NC(=O)c1cncc(OC(F)F)c1)c1ncnn1-c1ncccn1 (centres unmarked) [P24, 5-(difluoromethoxy)-N-[1-(2-pyrimidin-2-yl-1,2,4-triazol-3-yl)ethyl]pyridine-3-carboxamide]
≥ 80%: percent effect (mortality or growth inhibition) at 200 ppm (Diabrotica balteata) | percent effect (mortality or growth inhibition) at 200 ppm (Euschistus heros) | mortality at 200 ppm (Myzus persicae [4])
